# Test results: patent EP4800015A1, “AZABICYCLO DERIVATIVE AND PREPARATION METHOD THEREFOR, AND USE” (Zhejiang Hisun Pharmaceutical Co., Ltd., priority 2023, dated 2025)
# pIC50: −log10 of the molar value.
# Target: T1, recombinant human WRN (Homo sapiens, UniProt Q14191)
# T1 construct: purchased BPS 101264
# Experiment: Inhibition of WRN enzyme activity (ATPase), ADP-Glo Kinase Assay
# Format: biochemical
# Settings: WRN protein 5 nM, Flap 0.1 nM, ATP 30 µM
# Summary of the method: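 Recombinant human WRN (5 nM) was preincubated with compound (1000–0.004 nM) for 15 min at room temperature. Flap26 5'-flap DNA (0.1 nM) and 30 µM ATP were then added for 10 min in Tris pH 7.5, MgCl2, NaCl, BSA, Pluronic buffer. ADP was detected by ADP-Glo luminescence, and IC50 was obtained by nonlinear regression versus a 0.1% DMSO control.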
# T1 sequence (Q14191 whole entry): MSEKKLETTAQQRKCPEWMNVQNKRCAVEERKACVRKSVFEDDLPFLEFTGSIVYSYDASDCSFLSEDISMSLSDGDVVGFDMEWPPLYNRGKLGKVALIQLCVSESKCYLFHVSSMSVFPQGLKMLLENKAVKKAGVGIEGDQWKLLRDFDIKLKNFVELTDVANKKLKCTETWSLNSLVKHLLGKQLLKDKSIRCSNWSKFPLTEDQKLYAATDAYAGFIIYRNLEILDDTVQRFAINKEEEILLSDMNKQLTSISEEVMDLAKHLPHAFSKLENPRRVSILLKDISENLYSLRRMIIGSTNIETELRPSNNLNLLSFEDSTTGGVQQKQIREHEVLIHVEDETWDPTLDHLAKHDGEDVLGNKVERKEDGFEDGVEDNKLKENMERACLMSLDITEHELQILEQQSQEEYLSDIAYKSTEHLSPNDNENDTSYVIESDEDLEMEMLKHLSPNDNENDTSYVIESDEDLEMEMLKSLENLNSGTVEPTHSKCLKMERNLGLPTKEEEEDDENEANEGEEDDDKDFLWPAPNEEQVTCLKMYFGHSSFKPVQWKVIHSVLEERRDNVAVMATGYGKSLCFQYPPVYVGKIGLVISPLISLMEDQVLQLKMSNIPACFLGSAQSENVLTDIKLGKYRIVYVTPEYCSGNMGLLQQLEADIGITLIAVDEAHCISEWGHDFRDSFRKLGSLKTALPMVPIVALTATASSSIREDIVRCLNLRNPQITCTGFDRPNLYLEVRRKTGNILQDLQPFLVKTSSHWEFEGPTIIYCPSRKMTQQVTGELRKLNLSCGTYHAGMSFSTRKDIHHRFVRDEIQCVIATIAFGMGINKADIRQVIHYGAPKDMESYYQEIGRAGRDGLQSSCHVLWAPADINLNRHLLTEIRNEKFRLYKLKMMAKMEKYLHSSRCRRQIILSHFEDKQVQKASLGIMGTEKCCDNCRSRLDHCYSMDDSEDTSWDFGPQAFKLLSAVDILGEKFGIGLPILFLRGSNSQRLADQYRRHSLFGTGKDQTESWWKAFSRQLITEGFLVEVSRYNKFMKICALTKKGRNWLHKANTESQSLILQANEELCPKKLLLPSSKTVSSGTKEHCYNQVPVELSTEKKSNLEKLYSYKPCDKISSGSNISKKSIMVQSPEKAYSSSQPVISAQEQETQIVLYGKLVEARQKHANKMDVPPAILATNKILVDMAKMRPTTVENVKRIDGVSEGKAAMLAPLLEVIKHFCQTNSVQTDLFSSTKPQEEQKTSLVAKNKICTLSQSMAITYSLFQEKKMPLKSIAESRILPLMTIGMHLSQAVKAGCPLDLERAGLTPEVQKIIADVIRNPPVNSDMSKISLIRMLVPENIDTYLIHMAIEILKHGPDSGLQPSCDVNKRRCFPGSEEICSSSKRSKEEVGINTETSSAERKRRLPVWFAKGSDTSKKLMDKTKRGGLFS
row,SMILES,pIC50
1,"CCc1c(N2CCN(C(=O)c3ncnc(C)c3O)CC2)c(=O)n2nc(C3=C[C@H]4C[C@H]4C3)nc2n1CC(=O)Nc1ccc(S(F)(F)(F)(F)F)cc1 [Example 196, 2-(2-((1S,5S)-bicyclo[3.1.0]hex-2-en-3-yl)-5-ethyl-6-(4-(5-hydroxy-6-methylpyrimidine-4-carbonyl)piperazin-1-yl)-7-oxo-[1,2,4]triazolo[1,5-a]pyrimidin-4(7H)-yl)-N-(4-(pentafluoro-λ6-sulfaneyl)phenyl)acetamide]",7.00 to 9.00

# Same assay, conditions: WRN protein 5 nM, Flap 0.1 nM, ATP 30 µM; read-out: IC50
row,pIC50,SMILES
1,7.00 to 9.00,"CCc1c(N2CCN(C(=O)c3ncnc(C)c3O)CC2)c(=O)n2nc(C3CCCC3)nc2n1CC(=O)Nc1ccc(C(F)(F)F)cc1Cl [Example 2, N-(2-Chloro-4-(trifluoromethyl)phenyl)-2-(2-cyclopentyl-5-ethyl-6-(4-(5-hydroxy-6-methylpyrimidine-4-carbonyl)piperazin-1-yl)-7-oxo-[1,2,4]triazolo[1,5-a]pyrimidin-4(7H)-yl)acetamide]"
2,7.00 to 9.00,"CCc1c(N2CCN(C(=O)c3ncnc(C)c3O)CC2)c(=O)n2nc(C#CC3CC3)nc2n1CC(=O)Nc1ccc(C(F)(F)F)cc1Cl [Example 173, N-(2-chloro-4-(trifluoromethyl)phenyl)-2-(2-(cyclopropylethynyl)-5-ethyl-6-(4-(5-hydroxy-6-methylpyrimidine-4-carbonyl)piperazin-1-yl)-7-oxo-[1,2,4]triazolo[1,5-a]pyrimidin-4(7H)-yl)acetamide]"
3,7.00 to 9.00,"CCc1c(N2CCC(NC(=O)c3ncnc(C)c3O)CC2)c(=O)n2nc(-c3ccc4c(c3)CCO4)nc2n1CC(=O)Nc1ccc(C(F)(F)F)cc1Cl [Example 108, N-(1-(4-(2-((2-chloro-4-(trifluoromethyl)phenyl)amino)-2-oxoethyl)-2-(2,3-dihydrobenzofuran-5-yl)-5-ethyl-7-oxo-4,7-dihydro-[1,2,4]triazolo[1,5-a]pyrimidin-6-yl)piperidin-4-yl)-5-hydroxy-6-methylpyrimidine-4-carboxamide]"
4,7.00 to 9.00,"CCc1c(N2CCN(C(=O)c3ncnc(C)c3O)CC2)c(=O)n2nc(-c3ccc4ccn(C)c4c3)nc2n1CC(=O)Nc1ccc(C(F)(F)F)cc1Cl [Example 128, N-(2-chloro-4-(trifluoromethyl)phenyl)-2-(5-ethyl-6-(4-(5-hydroxy-6-methylpyrimidine-4-carbonyl)piperazin-1-yl)-2-(1-methyl-1H-indol-6-yl)-7-oxo-[1,2,4]triazolo[1,5-a]pyrimidin-4(7H)-yl)ac etamide]"
5,7.00 to 9.00,"CCc1c(N2CCN(C(=O)c3cccc(C)c3O)CC2)c(=O)n2nc(C3=CCCCCC3)nc2n1CC(=O)Nc1ccc(C(F)(F)F)cc1Cl [Example 11, N-(2-Chloro-4-(trifluoromethyl)phenyl)-2-(2-(cyclohept-1-en-1-yl)-5-ethyl-6-(4-(2-hydroxy-3-methylbenzoyl)piperazin-1-yl)-7-oxo-[1,2,4]triazolo[1,5-a]pyrimidin-4(7H)-yl)acetamide]"
6,7.00 to 9.00,"CCc1c(N2CCN(C(=O)c3ncnc(C)c3O)CC2)c(=O)n2nc(-c3ccc4c(c3)OCC4)nc2n1CC(=O)Nc1ccc(C(F)(F)F)cc1Cl [Example 81, N-(2-chloro-4-(trifluoromethyl)phenyl)-2-(2-(2,3-dihydrobenzofuran-6-yl)-5-ethyl-6-(4-(5-hydroxy-6-methylpyrimidine-4-carbonyl)piperazin-1-yl)-7-oxo-[1,2,4]triazolo[1,5-a]pyrimidin-4(7H)-yl)acetamide]"
7,7.00 to 9.00,"CCc1c(N2CCN(C(=O)c3ccncc3O)CC2)c(=O)n2nc(C3=CCCCCC3)nc2n1CC(=O)Nc1ccc(C(F)(F)F)cc1OC [Example 43, 2-(2-(cyclohept-1-en-1-yl)-5-ethyl-6-(4-(3-hydroxyisonicotinoyl)piperazin-1-yl)-7-oxo-[1,2,4]triazolo[1,5-a]pyrimidin-4(7H)-yl)-N-(2-methoxy-4-(trifluoromethyl)phenyl)acetamide]"
8,7.00 to 9.00,"CCc1c(N2CCN(C(=O)c3ncccc3O)CC2)c(=O)n2nc(C3=CCCCCC3)nc2n1CC(=O)Nc1ccc(C(F)(F)F)cc1Cl [Example 45, N-(2-chloro-4-(trifluoromethyl)phenyl)-2-(2-(cyclohept-1-en-1-yl)-5-ethyl-6-(4-(3-hydroxypicolinoyl)piperazin-1-yl)-7-oxo-[1,2,4]triazolo[1,5-a]pyrimidin-4(7H)-yl)acetamide]"
9,7.00 to 9.00,"CCc1c(N2CCN(C(=O)c3ncnc(C)c3O)CC2)c(=O)n2nc(C=C3CCOCC3)nc2n1CC(=O)Nc1ccc(C(F)(F)F)cc1Cl [Example 21, N-(2-chloro-4-(trifluoromethyl)phenyl)-2-(5-ethyl-6-(4-(5-hydroxy-6-methylpyrimidine-4-carbonyl)piperazin-1-yl)-7-oxo-2-((tetrahydro-4H-pyran-4-ylidene)methyl)-[1,2,4]triazolo[1,5-a]pyrimidin-4(7H)-yl)acetamide]"
10,7.00 to 9.00,"CCc1c(N2CCN(C(=O)c3ncnc(C)c3O)CC2)c(=O)n2nc(-c3ccc4c(c3)C(=O)NC4)nc2n1CC(=O)Nc1ccc(C(F)(F)F)cc1Cl [Example 127, N-(2-chloro-4-(trifluoromethyl)phenyl)-2-(5-ethyl-6-(4-(5-hydroxy-6-methylpyrimidine-4-carbonyl)piperazin-1-yl)-7-oxo-2-(3-oxoisoindolin-5-yl)-[1,2,4]triazolo[1,5-a]pyrimidin-4(7H)-yl)acetamide]"
11,7.00 to 9.00,"CCc1c(N2CCCN(C(=O)c3ncnc(C)c3O)CC2)c(=O)n2nc(C3=CCCCCC3)nc2n1CC(=O)Nc1ccc(S(F)(F)(F)(F)F)cc1 [Example 94, 2-(2-(cyclohept-1-en-1-yl)-5-ethyl-6-(4-(5-hydroxy-6-methylpyrimidine-4-carbonyl)-1,4-diazepan-1-yl)-7-oxo-[1,2,4]triazolo[1,5-a]pyrimidin-4(7H)-yl)-N-(4-(pentafluoro-λ^6-sulfaneyl)phenyl)a cetamide]"
12,7.00 to 9.00,"CCc1c(N2CCN(C(=O)c3ccncc3O)CC2)c(=O)n2nc(C3=CCCCCC3)nc2n1CC(=O)Nc1ccc(S(F)(F)(F)(F)F)cc1 [Example 25, 2-(2-(cyclohept-1-en-1-yl)-5-ethyl-6-(4-(3-hydroxyisonicotinoyl)piperazin-1-yl)-7-oxo-[1,2,4]triazolo[1,5-a]pyrimidin-4(7H)-yl)-N-(4-(pentafluoro-λ^6-sulfaneyl)phenyl)acetamide]"
13,7.00 to 9.00,"CCc1c(N2CCN(C(=O)c3ncnc(C)c3O)CC2)c(=O)n2nc(C3=CC4CN(C)CC4C3)nc2n1CC(=O)Nc1ccc(C(F)(F)F)cc1Cl (centres unmarked) [Example 144, N-(2-chloro-4-(trifluoromethyl)phenyl)-2-(5-ethyl-6-(4-(5-hydroxy-6-methylpyrimidine-4-carbonyl)piperazin-1-yl)-2-(2-methyl-1,2,3,3a,4,6a-hexahydrocyclopenta[c]pyrrol-5-yl)-7-oxo-[1,2,4]triazolo[1,5-a]pyrimidin-4(7H)-yl)acetamide]"
14,7.00 to 9.00,"CCc1nc2n(CC(=O)Nc3ccc(C(F)(F)F)cc3Cl)c(CC)c(N3CCN(C(=O)c4ncnc(C)c4O)CC3)c(=O)n2n1 [Example 28, N-(2-chloro-4-(trifluoromethyl)phenyl)-2-(2,5-diethyl-6-(4-(5-hydroxy-6-methylpyrimidine-4-carbonyl)piperazin-1-yl)-7-oxo-[1,2,4]triazolo[1,5-a]pyrimidin-4(7H)-yl)acetamide]"
15,7.00 to 9.00,"CCc1c(N2CCN(C(=O)c3ncnc(C)c3O)CC2)c(=O)n2nc(N3CCC4(CCNC4=O)CC3)nc2n1CC(=O)Nc1ccc(C(F)(F)F)cc1Cl [Example 13, N-(2-chloro-4-(trifluoromethyl)phenyl)-2-(5-ethyl-6-(4-(5-hydroxy-6-methylpyrimidine-4-carbonyl)piperazin-1-yl)-7-oxo-2-(1-oxo-2,8-diazaspiro[4.5]decan-8-yl)-[1,2,4]triazolo[1,5-a]pyrimidin-4(7H)-yl)acetamide]"
16,7.00 to 9.00,"CCc1c(N2CCN(C(=O)c3ncnc(C)c3O)CC2)c(=O)n2nc(-c3ccc4c(c3)CCO4)nc2n1CC(=O)Nc1cc2ccsc2cc1C [Example 168, 2-(2-(2,3-dihydrobenzofuran-5-yl)-5-ethyl-6-(4-(5-hydroxy-6-methylpyrimidine-4-carbonyl)piperazin-1-yl)-7-oxo-[1,2,4]triazolo[1,5-a]pyrimidin-4(7H)-yl)-N-(6-methylbenzo[b]thiophen-5-yl)ac etamide]"
17,7.00 to 9.00,"CCc1c(N2CCN(C(=O)c3ncnc(C)c3O)CC2)c(=O)n2nc(-c3ccn4ncnc4c3)nc2n1CC(=O)Nc1ccc(C(F)(F)F)cc1Cl [Example 137, 2-(2-([1,2,4]triazolo[1,5-a]pyridin-7-yl)-5-ethyl-6-(4-(5-hydroxy-6-methylpyrimidine-4-carbonyl)piperazin-1-yl)-7-oxo-[1,2,4]triazolo[1,5-a]pyrimidin-4(7H)-yl)-N-(2-chloro-4-(trifluoromethyl)phenyl)acetamide]"
18,7.00 to 9.00,"CCc1c(N2CCN(C(=O)c3ncccc3O)CC2)c(=O)n2nc(C3=CCCCCC3)nc2n1CC(=O)Nc1ccc(S(F)(F)(F)(F)F)cc1 [Example 46, 2-(2-(cyclohept-1-en-1-yl)-5-ethyl-6-(4-(3-hydroxypicolinoyl)piperazin-1-yl)-7-oxo-[1,2,4]triazolo[1,5-a]pyrimidin-4(7H)-yl)-N-(4-(pentafluoro-λ^6-sulfaneyl)phenyl)acetamide]"
19,> 9.00,"CCc1c(N2CCN(C(=O)c3ncnc(C)c3O)CC2)c(=O)n2nc(-c3cc4c(s3)CCN(CC(F)(F)F)C4)nc2n1CC(=O)Nc1ccc(C(F)(F)F)cc1Cl [Example 179, N-(2-chloro-4-(trifluoromethyl)phenyl)-2-(5-ethyl-6-(4-(5-hydroxy-6-methylpyrimidine-4-carbonyl)piperazin-1-yl)-7-oxo-2-(5-(2,2,2-trifluoroethyl)-4,5,6,7-tetrahydrothieno[3,2-c]pyridin-2-yl)-[1,2,4]triazolo[1,5-a]pyrimidin-4(7H)-yl)acetamide]"
